The record followed here is article PMC5218480 (PLoS ONE, 2017).

The assay relates to MV-4-11 cells. The assay is described as follows: Gene expression microarray analysis (Affymetrix PrimeView) and GSEA. The format is cell-based, human. The conditions noted are these: MV-4-11 cells, 48 hours. More on the design: RFU PODN (11730768_x_at) / Fold change /veh PODN (11730768_x_at) / RFU LINC00158 (11744669_a_at) / Fold change /veh LINC00158 (11744669_a_at) / RFU DUSP10 (11751237_a_at) / Fold change /veh DUSP10 (11751237_a_at) / RFU ID3 (11757404_x_at) / Fold change /veh ID3 (11757404_x_at) / RFU PLEKHG5 (11737974_s_at) / Fold change /veh PLEKHG5 (11737974_s_at) / RFU LRRC4B (11730491_at) / Fold change /veh LRRC4B (11730491_at) / RFU GIMAP4 (11747438_a_at) / Fold change /veh GIMAP4 (11747438_a_at) / RFU KRT8 (11758183_x_at) / Fold change /veh KRT8 (11758183_x_at) / RFU CNN1 (11734310_a_at) / Fold change /veh CNN1 (11734310_a_at) / RFU VPS37D (11726825_at) / Fold change /veh VPS37D (11726825_at) / RFU C10orf10 (11716522_x_at) / Fold change /veh C10orf10 (11716522_x_at) / RFU KIR2DL2 /// KIR2DL4 /// KIR2DL5A /// KIR2DL5B /// KIR2DS1 /// KIR2DS2 /// KIR2DS3 /// KIR2DS4 /// KIR3DL3 /// KIR3DL3 /// KIR3DS1 (11738374_at) / Fold change /veh KIR2DL2 /// KIR2DL4 /// KIR2DL5A /// KIR2DL5B /// KIR2DS1 /// KIR2DS2 /// KIR2DS3 /// KIR2DS4 /// KIR3DL3 /// KIR3DL3 /// KIR3DS1 (11738374_at) / RFU C1QL1 (11718748_at) / Fold change /veh C1QL1 (11718748_at) / RFU TMPRSS4 (11747572_a_at) / Fold change /veh TMPRSS4 (11747572_a_at) / RFU HAMP (11756126_x_at) / Fold change /veh HAMP (11756126_x_at) / RFU RNFT2 (11725882_a_at) / Fold change /veh RNFT2 (11725882_a_at) / RFU NR4A2 (11747474_a_at) / Fold change /veh NR4A2 (11747474_a_at) / RFU ABCC12 (11746883_a_at) / Fold change /veh ABCC12 (11746883_a_at) / RFU TMEM136 (11760407_x_at) / Fold change /veh TMEM136 (11760407_x_at) / RFU CLDN22 /// WWC2 (11732394_at) / Fold change /veh CLDN22 /// WWC2 (11732394_at) / RFU HLA-DPB1 (11760878_x_at) / Fold change /veh HLA-DPB1 (11760878_x_at) / RFU SPINT1 (11716480_a_at) / Fold change /veh SPINT1 (11716480_a_at) / RFU GAP43 (11754022_s_at) / Fold change /veh GAP43 (11754022_s_at) / RFU A4GNT (11735810_at) / Fold change /veh A4GNT (11735810_at) / RFU PRB3 (11715151_x_at) / Fold change /veh PRB3 (11715151_x_at) / RFU TUBB4B (11761932_at) / Fold change /veh TUBB4B (11761932_at) / RFU CAPN14 (11732068_a_at) / Fold change /veh CAPN14 (11732068_a_at) / RFU TMCC2 (11721928_a_at) / Fold change /veh TMCC2 (11721928_a_at) / RFU IRGQ (11745062_a_at) / Fold change /veh IRGQ (11745062_a_at) / RFU FAM174B (11720279_a_at) / Fold change /veh FAM174B (11720279_a_at) / RFU TMPRSS4 (11748680_a_at) / Fold change /veh TMPRSS4 (11748680_a_at) / RFU FAM212B (11763350_a_at) / Fold change /veh FAM212B (11763350_a_at) / RFU PLEKHG5 (11743358_a_at) / Fold change /veh PLEKHG5 (11743358_a_at) / RFU ZSCAN30 (11745921_a_at) / Fold change /veh ZSCAN30 (11745921_a_at) / RFU CMKLR1 (11741424_a_at) / Fold change /veh CMKLR1 (11741424_a_at) / RFU LOC101060620 /// MAPK8IP1 (11723275_at) / Fold change /veh LOC101060620 /// MAPK8IP1 (11723275_at) / RFU SPTSSB (11747773_x_at) / Fold change /veh SPTSSB (11747773_x_at) / RFU PRSS12 (11739890_at) / Fold change /veh PRSS12 (11739890_at) / RFU BIN1 (11741810_x_at) / Fold change /veh BIN1 (11741810_x_at) / RFU WNT11 (11732464_a_at) / Fold change /veh WNT11 (11732464_a_at) / RFU C10orf10 (11716521_a_at) / Fold change /veh C10orf10 (11716521_a_at) / RFU C5orf56 (11738089_at) / Fold change /veh C5orf56 (11738089_at) / RFU CYB561 (11721691_x_at) / Fold change /veh CYB561 (11721691_x_at) / RFU ANKRD19P (11752326_a_at) / Fold change /veh ANKRD19P (11752326_a_at) / RFU OR2T12 /// OR2T33 /// OR2T8 (11738714_s_at) / Fold change /veh OR2T12 /// OR2T33 /// OR2T8 (11738714_s_at) / RFU VCAN (11748164_a_at) / Fold change /veh VCAN (11748164_a_at) / RFU JSRP1 (11732532_at) / Fold change /veh JSRP1 (11732532_at) / RFU KRTAP10-11 (11738290_x_at) / Fold change /veh KRTAP10-11 (11738290_x_at) / RFU MYO3A (11730013_a_at) / Fold change /veh MYO3A (11730013_a_at) / RFU EBF3 (11725865_a_at) / Fold change /veh EBF3 (11725865_a_at) / RFU CAMK2N1 (11719241_x_at) / Fold change /veh CAMK2N1 (11719241_x_at) / RFU C5orf56 (11738088_a_at) / Fold change /veh C5orf56 (11738088_a_at) / RFU OLFML3 (11715873_a_at) / Fold change /veh OLFML3 (11715873_a_at) / RFU LOC100653217 /// NTM (11731650_a_at) / Fold change /veh LOC100653217 /// NTM (11731650_a_at) / RFU MAPK11 (11762145_a_at) / Fold change /veh MAPK11 (11762145_a_at) / RFU FIZ1 (11724087_x_at) / Fold change /veh FIZ1 (11724087_x_at) / RFU OASL (11726364_x_at) / Fold change /veh OASL (11726364_x_at) / RFU SOX15 (11748057_x_at) / Fold change /veh SOX15 (11748057_x_at) / RFU CD79A (11719716_a_at) / Fold change /veh CD79A (11719716_a_at) / RFU HIST1H1D (11736915_at) / Fold change /veh HIST1H1D (11736915_at) / RFU CASKIN2 (11723855_a_at) / Fold change /veh CASKIN2 (11723855_a_at) / RFU LOC730098 (11760151_x_at) / Fold change /veh LOC730098 (11760151_x_at) / RFU OR4N2 (11742367_at) / Fold change /veh OR4N2 (11742367_at) / RFU PRRT2 (11749266_a_at) / Fold change /veh PRRT2 (11749266_a_at) / RFU SNX32 (11753110_a_at) / Fold change /veh SNX32 (11753110_a_at) / RFU CDHR5 (11726645_a_at) / Fold change /veh CDHR5 (11726645_a_at) / RFU RCAN1 (11760418_a_at) / Fold change /veh RCAN1 (11760418_a_at) / RFU FAM167A (11723789_a_at) / Fold change /veh FAM167A (11723789_a_at) / RFU FAM26E (11764081_at) / Fold change /veh FAM26E (11764081_at) / RFU ISYNA1 (11749810_s_at) / Fold change /veh ISYNA1 (11749810_s_at) / RFU ACY1 (11761880_at) / Fold change /veh ACY1 (11761880_at) / RFU 11764098_at / Fold change /veh 11764098_at / RFU SAMD14 (11745864_x_at) / Fold change /veh SAMD14 (11745864_x_at) / RFU NPB (11741838_a_at) / Fold change /veh NPB (11741838_a_at) / RFU TMPRSS6 (11731388_a_at) / Fold change /veh TMPRSS6 (11731388_a_at) / RFU KRTAP10-2 (11738614_at) / Fold change /veh KRTAP10-2 (11738614_at) / RFU ARHGAP8 /// PRR5-ARHGAP8 (11727945_x_at) / Fold change /veh ARHGAP8 /// PRR5-ARHGAP8 (11727945_x_at) / RFU KRTAP5-7 /// NADSYN1 (11734609_at) / Fold change /veh KRTAP5-7 /// NADSYN1 (11734609_at) / RFU RASL12 (11751679_a_at) / Fold change /veh RASL12 (11751679_a_at) / RFU CDKN2B (11736163_a_at) / Fold change /veh CDKN2B (11736163_a_at) / RFU PRF1 (11729649_at) / Fold change /veh PRF1 (11729649_at) / RFU, ZNF638 /// ZNF638-IT1 / Fold change vs veh, ZNF638 /// ZNF638-IT1 / RFU, PANK3 / Fold change vs veh, PANK3 / RFU, SH3YL1 / Fold change vs veh, SH3YL1 / RFU, ZEB2 / Fold change vs veh, ZEB2 / RFU, NRIP1 / Fold change vs veh, NRIP1 / RFU, PTTG1IP / Fold change vs veh, PTTG1IP / RFU, CAPN2 / Fold change vs veh, CAPN2 / RFU, MED14 / Fold change vs veh, MED14 / RFU, SNORA58 / Fold change vs veh, SNORA58 / RFU, C1orf63 / Fold change vs veh, C1orf63 / RFU, LRRFIP1 / Fold change vs veh, LRRFIP1 / RFU, NDUFAF7 / Fold change vs veh, NDUFAF7 / RFU, SLC12A2 / Fold change vs veh, SLC12A2 / RFU, IBTK / Fold change vs veh, IBTK / RFU, ESF1 / Fold change vs veh, ESF1 / Fold change vs veh, TMEM50B / RFU, TAOK1 / Fold change vs veh, TAOK1 / RFU, ACBD3 / Fold change vs veh, ACBD3 / RFU, TMA16 / Fold change vs veh, TMA16 / RFU, RWDD3 / Fold change vs veh, RWDD3 / RFU, BCAT1 / Fold change vs veh, BCAT1 / RFU, EDEM3 / Fold change vs veh, EDEM3 / RFU, TMEM33 / Fold change vs veh, TMEM33 / RFU, WDR75 / Fold change vs veh, WDR75 / RFU, AHCTF1 / Fold change vs veh, AHCTF1 / RFU, TFRC / Fold change vs veh, TFRC / RFU, ZDHHC17 / Fold change vs veh, ZDHHC17 / RFU, NOM1 / Fold change vs veh, NOM1 / RFU, ARL8B / Fold change vs veh, ARL8B / RFU, ZBTB11 / Fold change vs veh, ZBTB11 / RFU, TAMM41 / Fold change vs veh, TAMM41 / RFU, KIAA1704 /// LOC100996395 / Fold change vs veh, KIAA1704 /// LOC100996395 / RFU, ING1 / Fold change vs veh, ING1 / RFU, TRMT61B / Fold change vs veh, TRMT61B / RFU, FUBP3 / Fold change vs veh, FUBP3 / RFU, TP53 / Fold change vs veh, TP53 / RFU, TNKS2 / Fold change vs veh, TNKS2 / RFU, ZFP14 / Fold change vs veh, ZFP14 / RFU, ACTR2 / Fold change vs veh, ACTR2 / RFU, PPP3R1 / Fold change vs veh, PPP3R1 / RFU, PIK3R1 / Fold change vs veh, PIK3R1 / RFU, HNRNPA1 / Fold change vs veh, HNRNPA1 / RFU, RNF170 / Fold change vs veh, RNF170 / RFU, ZNF28 / Fold change vs veh, ZNF28 / RFU, RNGTT / Fold change vs veh, RNGTT / RFU, OGT / Fold change vs veh, OGT / RFU, BRD1 / Fold change vs veh, BRD1 / RFU, MARS / Fold change vs veh, MARS / RFU, ZNF655 / Fold change vs veh, ZNF655 / RFU, FAHD1 / Fold change vs veh, FAHD1 / RFU, BDP1 / Fold change vs veh, BDP1 / RFU, LRRCC1 / Fold change vs veh, LRRCC1 / RFU, ARID1A / Fold change vs veh, ARID1A / RFU, ZNF146 / Fold change vs veh, ZNF146 / RFU, ZNF330 / Fold change vs veh, ZNF330 / RFU, GPN3 / Fold change vs veh, GPN3 / RFU, C9orf123 / Fold change vs veh, C9orf123 / RFU, N4BP2L2 / Fold change vs veh, N4BP2L2 / RFU, ARFIP1 / Fold change vs veh, ARFIP1 / RFU, FAM179B / Fold change vs veh, FAM179B / RFU, BCL10 / Fold change vs veh, BCL10 / RFU, UHRF1BP1L / Fold change vs veh, UHRF1BP1L / RFU, BET1 / Fold change vs veh, BET1 / RFU, CNOT2 / Fold change vs veh, CNOT2 / RFU, ZNF268 / Fold change vs veh, ZNF268 / Fold change vs veh, ZNF507 / RFU, DGCR2 / Fold change vs veh, DGCR2 / RFU, WDSUB1 / Fold change vs veh, WDSUB1 / Fold change vs veh, HSP90B1 /// MIR3652 / RFU, ADSS / Fold change vs veh, ADSS / RFU, GK / Fold change vs veh, GK / RFU, ZNF148 / Fold change vs veh, ZNF148 / RFU, TAF9 / Fold change vs veh, TAF9 / RFU, SLC1A5 / Fold change vs veh, SLC1A5 / RFU, SLMO2 / Fold change vs veh, SLMO2 / RFU, ABCC4 / Fold change vs veh, ABCC4 / RFU, LOC101060439 /// RAP1B / Fold change vs veh, LOC101060439 /// RAP1B / RFU, RFX7 / Fold change vs veh, RFX7 / RFU, GTPBP10 / Fold change vs veh, GTPBP10 / RFU, CNEP1R1 / Fold change vs veh, CNEP1R1 / RFU, BIVM-ERCC5 /// ERCC5 / Fold change vs veh, BIVM-ERCC5 /// ERCC5 / RFU, ILF3 / Fold change vs veh, ILF3 / RFU 11762660_at / Fold change /veh 11762660_at / RFU VCAN (11757783_s_at) / Fold change /veh VCAN (11757783_s_at) / RFU DDX43 (11728927_at) / Fold change /veh DDX43 (11728927_at) / RFU KRT8 (11758188_x_at) / Fold change /veh KRT8 (11758188_x_at) / RFU NKD1 (11759106_at) / Fold change /veh NKD1 (11759106_at) / RFU SRD5A1 (11742802_a_at) / Fold change /veh SRD5A1 (11742802_a_at) / RFU TPSAB1 /// TPSB2 (11721975_s_at) / Fold change /veh TPSAB1 /// TPSB2 (11721975_s_at) / RFU GSTM3 (11746129_a_at) / Fold change /veh GSTM3 (11746129_a_at) / RFU IL23R (11737362_x_at) / Fold change /veh IL23R (11737362_x_at) / RFU TMEM51 (11727254_a_at) / Fold change /veh TMEM51 (11727254_a_at) / RFU PIWIL2 (11732686_x_at) / Fold change /veh PIWIL2 (11732686_x_at) / RFU ORM1 (11744905_x_at) / Fold change /veh ORM1 (11744905_x_at) / RFU CCDC152 (11743942_at) / Fold change /veh CCDC152 (11743942_at) / RFU ECM1 (11717891_a_at) / Fold change /veh ECM1 (11717891_a_at) / RFU IL23R (11748794_a_at) / Fold change /veh IL23R (11748794_a_at) / RFU TNFAIP8L3 (11732012_x_at) / Fold change /veh TNFAIP8L3 (11732012_x_at) / RFU MBOAT4 (11741988_at) / Fold change /veh MBOAT4 (11741988_at) / RFU 11764193_at / Fold change /veh 11764193_at / RFU TMEM53 (11763286_at) / Fold change /veh TMEM53 (11763286_at) / RFU MAGEB2 (11727129_at) / Fold change /veh MAGEB2 (11727129_at) / RFU TMEM200A (11744735_a_at) / Fold change /veh TMEM200A (11744735_a_at) / RFU CCDC152 (11751479_a_at) / Fold change /veh CCDC152 (11751479_a_at) / RFU FAM211A (11726209_a_at) / Fold change /veh FAM211A (11726209_a_at) / RFU RGS16 (11746705_a_at) / Fold change /veh RGS16 (11746705_a_at) / RFU VCAN (11755009_s_at) / Fold change /veh VCAN (11755009_s_at) / RFU RHOB (11743442_s_at) / Fold change /veh RHOB (11743442_s_at) / RFU RGS16 (11720943_a_at) / Fold change /veh RGS16 (11720943_a_at) / RFU RGS16 (11720944_at) / Fold change /veh RGS16 (11720944_at) / RFU, VPS4B / Fold change vs veh, VPS4B / RFU, CREB1 / Fold change vs veh, CREB1 / RFU, DNAJC13 / Fold change vs veh, DNAJC13 / RFU, GNAQ / Fold change vs veh, GNAQ / RFU, CDK5R1 / Fold change vs veh, CDK5R1 / RFU, ZRANB3 / Fold change vs veh, ZRANB3 / RFU, CUL4A / Fold change vs veh, CUL4A / RFU, CCNY / Fold change vs veh, CCNY / RFU, UFL1 / Fold change vs veh, UFL1 / RFU, COG3 / Fold change vs veh, COG3 / RFU, DIAPH2 / Fold change vs veh, DIAPH2 / RFU, SKA2 / Fold change vs veh, SKA2 / RFU, AFF3 / Fold change vs veh, AFF3 / RFU, LMF1 / Fold change vs veh, LMF1 / RFU, IPO11 / Fold change vs veh, IPO11 / RFU, DFFB / Fold change vs veh, DFFB / RFU, FOXP1 / Fold change vs veh, FOXP1 / RFU, CARD8 / Fold change vs veh, CARD8 / RFU, STRN3 / Fold change vs veh, STRN3 / RFU, ADK / Fold change vs veh, ADK / RFU, RASSF2 / Fold change vs veh, RASSF2 / RFU, WIPF1 / Fold change vs veh, WIPF1 / RFU, LARP1B / Fold change vs veh, LARP1B / RFU, RASA1 / Fold change vs veh, RASA1 / RFU, RB1 / Fold change vs veh, RB1 / RFU, PPFIA1 / Fold change vs veh, PPFIA1 / RFU, MAT2A / Fold change vs veh, MAT2A / RFU, CCT5 / Fold change vs veh, CCT5 / RFU, WDR92 / Fold change vs veh, WDR92 / RFU, CUX1 / Fold change vs veh, CUX1 / RFU, TTC7A / Fold change vs veh, TTC7A / RFU, TMEM135 / Fold change vs veh, TMEM135 / RFU, DEPTOR / Fold change vs veh, DEPTOR / RFU, CPM / Fold change vs veh, CPM / RFU, DNAJB6 / Fold change vs veh, DNAJB6 / RFU, CACNA2D3 / Fold change vs veh, CACNA2D3 / RFU, DTX4 / Fold change vs veh, DTX4 / RFU, TFCP2 / Fold change vs veh, TFCP2 / RFU, GMCL1 /// GMCL1P1 / Fold change vs veh, GMCL1 /// GMCL1P1 / RFU, AEBP2 / Fold change vs veh, AEBP2 / RFU, SNHG1 /// SNORD22 /// SNORD25 /// SNORD26 /// SNORD27 /// SNORD28 /// SNORD29 /// SNORD31 / Fold change vs veh, SNHG1 /// SNORD22 /// SNORD25 /// SNORD26 /// SNORD27 /// SNORD28 /// SNORD29 /// SNORD31 / Fold change (Aza/veh), C12orf56 (ProbeSet 11735607_a_at) / Fold change (ACY-1035/veh), C12orf56 (ProbeSet 11735607_a_at) / Fold change (Aza/veh), FGFR1OP (ProbeSet 11751329_s_at) / Fold change (ACY-1035/veh), FGFR1OP (ProbeSet 11751329_s_at) / Fold change (Aza/veh), VPS36 (ProbeSet 11739960_a_at) / Fold change (ACY-1035/veh), VPS36 (ProbeSet 11739960_a_at) / RFU SYPL1 (11715823_x_at) / Fold change /veh SYPL1 (11715823_x_at) / RFU IGFBP7 (11715501_s_at) / Fold change /veh IGFBP7 (11715501_s_at) / RFU REEP3 (11722064_at) / Fold change /veh REEP3 (11722064_at) / RFU IGLL1 (11728026_x_at) / Fold change /veh IGLL1 (11728026_x_at): dose or concentration left out as unconfirmed.

Take `Nc1ncn([C@@H]2O[C@H](CO)[C@@H](O)[C@H]2O)c(=O)n1` [azacitidine]: the “Fold change /veh CAMK2N1 (11719241_x_at)” value is listed as 0.94.
